Experimental data as given in patent publication US5545647A, “3-phenylpyrrolidine derivatives” (Mitsubishi Chemical Corporation, priority 1994, dated 1996).
pIC50: −log10 of the molar value.

System: PDE IV
Experiment: not given
Conditions: Adv. Second Messenger Phosphoprotein Res., 22, 1 (1988); cited from earlier work
In the case of `COc1ccc(C2CNC(=O)C2)cc1OC1CCCC1` (centres unmarked) [roliplam, reference compound], the “specific inhibition to PDE IV” value is given as “specific inhibition to PDE IV”.

System: Phosphodiesterase (PDE) IV
Experiment: Action to Phosphodiesterase (PDE) IV Enzyme Activities (3H-cAMP hydrolysis, enzyme from U-937 cells)
Format: biochemical
Conditions: human histiocytic lymphoma (U-937) cytoplasm fraction enzyme; 0.4 μM 3H-cAMP; pH 8.0; 15 minutes at 30° C.; read-out: PDE IV inhibitory activity IC50
Experimental: Action to Phosphodiesterase (PDE) IV Enzyme Activities
Enzyme was partialy purified from human histiocytic lymphoma(U-937) cytoplasm fraction by means of the Q-sepharose column according to the method of Nicholson and collaborators [Br. J. Pharmacol., 97, 889 (1989)], and was reacted in a solution of 0.1 mg/ml BSA (bovine serum albumin), 1 mM EDTA (ethylenediaminetetra acetic acid), 5 mM MgCl2 and 50 mM Tris-buffer (pH 8.0) for 15 minutes at 30° C. using 0.4 μM ^3 H-cAMP as substrate according to the method of Hidaka and collaborators [Biochem. Med., 10, 301 (1974)]. ^3 H-5'-AMP generated was separated by means of the cation exchange column, and the enzyme activity was determined by measuring a radioactivity amount.
A test compound was added. After incubation for 15 minutes at 30° C., the substrate was added. Inhibition ratios were derived for respective concentrations assuming that the reaction without the test compound was 100%. By using the probit analysis, the concentration (IC50) showing the inhibition rate of 50% was derived.
`CCCCOC(=O)N1CCC(c2ccc(OC)c(OC3CCCC3)c2)C1` (centres unmarked) [compound 6] showed a pIC50 of 8.22.
In the case of `COc1ccc(C2CCN(C(=O)OC(C)(C)C)C2)cc1OC1CCCC1` (centres unmarked) [Compound No. 1], the pIC50 was 8.00.
In the case of `COc1ccc(C2CCN(C(=O)OCc3cccnc3)C2)cc1OC1CCCC1` (racemic) [Compound No. 13, (±)-3-(3-cyclopentyloxy-4-methoxyphenyl)-l-(3pyridylmethoxycarbonyl) pyrrolidine], the pIC50 was 8.48.
For `COc1ccc(C2CCN(C(=O)OCc3ccncc3)C2)cc1OC1CCCC1` (centres unmarked) [compound 19], the pIC50 was 8.42.
Work on `COc1ccc(C2CCN(C(=O)OCc3ccccc3)C2)cc1OC1CCCC1` (centres unmarked) [compound 3] yielded a pIC50 of 8.22.
For `COc1ccc(C2CCN(C(=O)OCc3ccc(Cl)nc3)C2)cc1OC1CCCC1` (centres unmarked) [compound 38], the pIC50 was 7.64.
Work on `COc1ccc(C2CCN(C(=O)OCCc3ccccn3)C2)cc1OC1CCCC1` (centres unmarked) [compound 36] yielded a pIC50 of 7.96.
In the case of `COc1ccc(C2CCN(C(=O)OCc3ccnc(Cl)c3)C2)cc1OC1CCCC1` (centres unmarked) [compound 37], the pIC50 was 7.72.
`COc1ccc(C2CCN(C(=O)OC(C)(C)C)C2)cc1OC1CCOC1` (centres unmarked) [compound 8] showed a pIC50 of 7.72.
`COc1ccc(C2CCN(C(=O)OCc3ccc[n+]([O-])c3)C2)cc1OC1CCCC1` (centres unmarked) [compound 17] gave a pIC50 of 7.64.
With `CCOC(=O)N1CCC(c2ccc(OC)c(OC3CCCC3)c2)C1` (centres unmarked) [Compound No. 4, 3-(3-cyclopentyloxy-4-methoxyphenyl)-1-(ethoxycarbonyl) pyrrolidine] the pIC50 was 7.96.
`COc1ccc(C2CNC(=O)C2)cc1OC1CCCC1` (centres unmarked) [roliplam, reference compound] showed a pIC50 of 6.52.
Molecule `COc1ccc(C2CCN(C(=O)c3ccccc3)C2)cc1OC1CCCC1` (centres unmarked) [compound 7] has a pIC50 of 7.70.
Work on `COc1cc2c(cc1OC)CN(C(=O)N1CCC(c3ccc(OC)c(OC4CCCC4)c3)C1)CC2` (centres unmarked) [compound 32] yielded a pIC50 of 7.60.
Work on `COc1ccc(C2CCN(C(=O)OCc3cccnn3)C2)cc1OC1CCCC1` (centres unmarked) [compound 42] yielded a pIC50 of 8.10.
With `COc1ccc(C2CCN(C(=O)OCc3cccnc3)C2)cc1OC1CCCC1` (single isomer, unassigned; (-)) [Compound No. 48, (-)-3-(3-cyclopentyloxy-4-methoxyphenyl)-1-(3-pyridylmethoxycarbonyl) pyrrolidine] the pIC50 was 8.96.
Work on `COc1ccc(C2CCN(C(=O)OCc3cccc[n+]3[O-])C2)cc1OC1CCCC1` (centres unmarked) [compound 26] yielded a pIC50 of 8.06.
In the case of `COc1ccc(C2CCN(C(=S)OCc3cccnc3)C2)cc1OC1CCCC1` (centres unmarked) [compound 40], the pIC50 was 8.00.
Molecule `COc1ccc(C2CCN(C(=O)OCc3ccccn3)C2)cc1OC1CCCC1` (centres unmarked) [compound 24] has a pIC50 of 8.64.
